Values of other authors as cited in patent US8481599B2, “Compositions and methods for increasing compliance with therapies using aldehyde dehydrogenase inhibitors and treating alcoholism” (Tonix Pharmaceuticals Inc., priority 2001, dated 2013).
Where two headings read alike, the source gives them in different places.

Columns and labels:
ALDH-I = biological target: T1, ALDH-I (Homo sapiens, UniProt P05091)
T1 sequence (P05091 18-517): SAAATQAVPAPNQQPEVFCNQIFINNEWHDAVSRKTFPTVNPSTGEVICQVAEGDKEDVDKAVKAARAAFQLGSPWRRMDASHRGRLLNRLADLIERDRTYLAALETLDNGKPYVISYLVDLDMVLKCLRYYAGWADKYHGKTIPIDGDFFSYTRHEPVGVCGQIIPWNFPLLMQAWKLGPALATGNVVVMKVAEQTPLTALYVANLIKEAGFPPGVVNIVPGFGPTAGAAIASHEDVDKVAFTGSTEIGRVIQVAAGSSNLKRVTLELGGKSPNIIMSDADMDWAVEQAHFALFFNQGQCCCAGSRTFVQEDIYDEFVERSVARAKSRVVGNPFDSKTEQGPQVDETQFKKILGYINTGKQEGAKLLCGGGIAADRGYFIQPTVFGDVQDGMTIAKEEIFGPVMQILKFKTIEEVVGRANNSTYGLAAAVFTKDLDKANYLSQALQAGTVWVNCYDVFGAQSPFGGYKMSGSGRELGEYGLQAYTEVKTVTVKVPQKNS

ALDH-II = biological target: T2, ALDH-II (Homo sapiens, UniProt P00352); conditions: in vitro
T2 sequence (P00352 1-501): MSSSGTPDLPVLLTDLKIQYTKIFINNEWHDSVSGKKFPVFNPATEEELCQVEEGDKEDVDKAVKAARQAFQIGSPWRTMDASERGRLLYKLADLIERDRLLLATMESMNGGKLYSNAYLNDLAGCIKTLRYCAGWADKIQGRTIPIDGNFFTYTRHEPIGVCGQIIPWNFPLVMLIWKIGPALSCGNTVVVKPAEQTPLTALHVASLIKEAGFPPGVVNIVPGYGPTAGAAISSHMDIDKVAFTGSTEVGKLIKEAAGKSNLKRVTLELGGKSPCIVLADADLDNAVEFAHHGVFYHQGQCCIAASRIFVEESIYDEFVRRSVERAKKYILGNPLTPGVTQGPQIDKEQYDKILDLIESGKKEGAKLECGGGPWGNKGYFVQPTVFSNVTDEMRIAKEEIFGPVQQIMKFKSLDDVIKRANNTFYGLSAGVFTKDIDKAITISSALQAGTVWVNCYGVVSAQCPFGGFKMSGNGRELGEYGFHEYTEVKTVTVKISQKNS

[1] = rat studies
ALDH = conditions: rat studies

O=c1c(-c2ccc(O)cc2)coc2cc(O[C@@H]3O[C@H](CO)[C@@H](O)[C@H](O)[C@H]3O)ccc12 [Daidzin]
inhibition of ALDH-I (ALDH-I): selective potent reversible inhibitor

N#CN [cyanamide]
inhibition of ALDH-II (ALDH-II): unable to inhibit | inhibition of ALDH-I (ALDH-I; in vitro): unable to inhibit

N5-(hydroxycyclopropyl)-L-glutamine [coprine]
suppression of ethanol consumption [1]: effectively suppressed ethanol consumption | potency as ALDH inhibitor relative to disulfiram (ALDH): more potent inhibitor of ALDH as compared to disulfiram
